Strand notation (5' to 3'): a small letter for the sugar, then the base; units joined by * are phosphorothioate-linked, units joined directly phosphodiester-linked; [ ] holds rarer units or linkages, { } end groups; capitals alone tell only the bases. k = constrained ethyl (cEt); [5mC] = 5-methylcytosine; d = 2'-deoxy (DNA)
System: Yap1 mRNA
Experiment: Dose-dependent inhibition of human Yap1 in A-431 cells (Example 6, 5,000 cells per well, RTS4814)
Format: cell-based
Conditions: for % UTC 148 nM / % UTC 444 nM / % UTC 1333 nM / % UTC 4000 nM: approximately 48 hours; for Yap1 mRNA, % UTC: 48 hours
Method: Modified oligonucleotides described in the studies above were tested at various doses in A-431 cells. Cultured A-431 cells at a density of 5,000 cells per well were treated using free uptake with modified oligonucleotides diluted to concentrations described in the tables below. After approximately 48 hours, Yap1 mRNA levels were measured as previously described using the Human Yap1 primer-probe set RTS4814. Yap1 mRNA levels were normalized to total RNA content, as measured by RIBOGREEN®. Results are presented in the tables below as percent control of the amount of Yap1 mRNA relative to untreated control cells (% UTC). IC50s were calculated using a linear regression on a log/linear plot of the data in excel.

[1] = Table 54, A-431 cells, Yap1 mRNA, linear regression on a log/linear plot
[2] = Table 54, A-431 cells, free uptake, 148 nM, RTS4814
[3] = Table 54, A-431 cells, free uptake, 444 nM, RTS4814
[4] = Table 54, A-431 cells, free uptake, 1333 nM, RTS4814
[5] = Table 54, A-431 cells, free uptake, 4000 nM, RTS4814
[6] = Table 55, 148 nM, free uptake, A-431 cells 5,000 cells per well, RTS4814
[7] = Table 55, 444 nM, free uptake, A-431 cells 5,000 cells per well, RTS4814
[8] = Table 55, 1333 nM, free uptake, A-431 cells 5,000 cells per well, RTS4814
[9] = Table 55, 4000 nM, free uptake, A-431 cells 5,000 cells per well, RTS4814
[10] = Table 55, A-431 cells 5,000 cells per well, free uptake, RTS4814
[11] = Table 53, A-431 cells, Yap1 mRNA, linear regression on a log/linear plot
[12] = Table 53, A-431 cells, free uptake, 148 nM, RTS4814
[13] = Table 53, A-431 cells, free uptake, 444 nM, RTS4814
[14] = Table 53, A-431 cells, free uptake, 1333 nM, RTS4814
[15] = Table 53, A-431 cells, free uptake, 4000 nM, RTS4814

| Substance | IC50 [1] | % UTC 148 nM [2] | % UTC 444 nM [3] | % UTC 1333 nM [4] | % UTC 4000 nM [5] | Yap1 mRNA, % UTC [6] | Yap1 mRNA, % UTC [7] | Yap1 mRNA, % UTC [8] | Yap1 mRNA, % UTC [9] | IC50 [10] | IC50 [11] | % UTC 148 nM [12] | % UTC 444 nM [13] | % UTC 1333 nM [14] | % UTC 4000 nM [15] |
| --- | --- | --- | --- | --- | --- | --- | --- | --- | --- | --- | --- | --- | --- | --- | --- |
| 716484 (antisense k[5mC]*kA*k[5mC]*dT*dT*dT*dT*d[5mC]*d[5mC]*dA*dG*d[5mC]*dT*kA*kA*k[5mC]) [compound 716484] | > 4 µM | 88 % UTC | 78 % UTC | 80 % UTC | 55 % UTC | – | – | – | – | – | – | – | – | – | – |
| 716438 (antisense kA*kT*kT*dT*dT*dT*dG*dG*d[5mC]*dT*dT*dG*dT*k[5mC]*kA*kG) [compound 716438] | – | – | – | – | – | 93 % UTC | 75 % UTC | 62 % UTC | 49 % UTC | 3.4 µM | – | – | – | – | – |
| 715490 (k[5mC]*k[5mC]*kA*dA*d[5mC]*dT*dA*dT*dT*dA*d[5mC]*dT*dT*k[5mC]*kA*kT; antisense) [compound 715490] | – | – | – | – | – | – | – | – | – | – | 4.1 µM | 98 % UTC | 89 % UTC | 76 % UTC | 43 % UTC |
| 715508 (k[5mC]*kT*kG*dT*dG*d[5mC]*dT*dG*dG*dG*dA*dT*dT*kG*kA*kT; antisense) [compound 715508] | – | – | – | – | – | – | – | – | – | – | 3.5 µM | 78 % UTC | 70 % UTC | 67 % UTC | 43 % UTC |
| 715434 (kT*k[5mC]*kT*dT*dG*dT*dT*d[5mC]*dT*dT*dA*dT*dG*kG*kT*kT; antisense) [compound 715434] | – | – | – | – | – | – | – | – | – | – | 2.8 µM | 84 % UTC | 69 % UTC | 64 % UTC | 43 % UTC |
| 715486 (kT*kA*k[5mC]*dT*dT*d[5mC]*dA*dT*dA*dG*d[5mC]*dT*dT*kA*kT*kA; antisense) [compound 715486] | – | – | – | – | – | – | – | – | – | – | > 4 µM | 93 % UTC | 89 % UTC | 81 % UTC | 56 % UTC |
| 715478 (kA*k[5mC]*k[5mC]*dA*dT*dT*dA*dT*dT*dA*d[5mC]*dT*d[5mC]*k[5mC]*kT*kG; antisense) [compound 715478] | 0.6 µM | 72 % UTC | 59 % UTC | 31 % UTC | 18 % UTC | 76 % UTC | 56 % UTC | 32 % UTC | 18 % UTC | 0.6 µM | 0.4 µM | 70 % UTC | 47 % UTC | 29 % UTC | 16 % UTC |
| 716419 (antisense kT*kT*kT*d[5mC]*d[5mC]*dG*dG*dT*dG*d[5mC]*dA*dT*dG*kT*kG*kT) [compound 716419] | – | – | – | – | – | 89 % UTC | 84 % UTC | 49 % UTC | 47 % UTC | 2.5 µM | – | – | – | – | – |
| 715510 (kA*kT*kT*dT*dG*d[5mC]*dT*dG*dT*dG*d[5mC]*dT*dG*kG*kG*kA; antisense) [compound 715510] | – | – | – | – | – | – | – | – | – | – | 2.4 µM | 88 % UTC | 67 % UTC | 59 % UTC | 45 % UTC |
| 716469 (antisense kG*kT*kT*dT*dG*d[5mC]*dT*d[5mC]*d[5mC]*dT*dT*dT*d[5mC]*k[5mC]*kA*kA) [compound 716469] | > 4 µM | 71 % UTC | 78 % UTC | 89 % UTC | 39 % UTC | – | – | – | – | – | – | – | – | – | – |
| 715435 (kG*kG*kT*d[5mC]*dT*dT*dG*dT*dT*d[5mC]*dT*dT*dA*kT*kG*kG; antisense) [compound 715435] | 3.4 µM | 80 % UTC | 67 % UTC | 61 % UTC | 48 % UTC | – | – | – | – | – | – | – | – | – | – |
| 716381 (kT*kG*kT*d[5mC]*dT*dG*dA*dT*d[5mC]*dG*dA*dT*dG*kT*kG*kA; antisense) [compound 716381] | – | – | – | – | – | 106 % UTC | 90 % UTC | 80 % UTC | 44 % UTC | 4.2 µM | – | – | – | – | – |
| 716489 (antisense kA*kG*kT*dT*dA*dA*dT*dT*d[5mC]*dA*dT*dG*d[5mC]*kT*k[5mC]*kG) [compound 716489] | – | – | – | – | – | 84 % UTC | 83 % UTC | 69 % UTC | 61 % UTC | > 4 µM | – | – | – | – | – |
| 716505 (antisense kG*kA*kT*dT*dT*dA*dA*dT*d[5mC]*dT*dT*dT*d[5mC]*kT*kG*k[5mC]) [compound 716505] | > 4 µM | 83 % UTC | 103 % UTC | 82 % UTC | 66 % UTC | – | – | – | – | – | – | – | – | – | – |
| 715471 (kT*kA*kT*d[5mC]*dT*dA*dG*d[5mC]*dT*dT*dG*dG*dT*kG*kG*k[5mC]; antisense) [compound 715471] | > 4 µM | 82 % UTC | 103 % UTC | 105 % UTC | 79 % UTC | – | – | – | – | – | – | – | – | – | – |
| 715501 (kA*kA*kA*dA*dG*d[5mC]*d[5mC]*dT*dT*dA*dG*dA*dG*kT*k[5mC]*kA; antisense) [compound 715501] | – | – | – | – | – | – | – | – | – | – | > 4 µM | 82 % UTC | 82 % UTC | 68 % UTC | 56 % UTC |
| 715500 (kA*kA*kG*d[5mC]*d[5mC]*dT*dT*dA*dG*dA*dG*dT*d[5mC]*kA*kA*kT; antisense) [compound 715500] | – | – | – | – | – | – | – | – | – | – | 3.6 µM | 97 % UTC | 72 % UTC | 67 % UTC | 48 % UTC |
| 715577 (kG*k[5mC]*kA*dT*dT*d[5mC]*dA*d[5mC]*dA*dG*dA*dG*dT*kT*kA*kA; antisense) [compound 715577] | – | – | – | – | – | – | – | – | – | – | > 4 µM | 87 % UTC | 76 % UTC | 73 % UTC | 45 % UTC |
| 716493 (antisense kA*k[5mC]*kA*dT*dT*dG*dA*dA*dA*dG*dA*d[5mC]*d[5mC]*k[5mC]*kT*kT) [compound 716493] | > 4 µM | 95 % UTC | 97 % UTC | 86 % UTC | 72 % UTC | – | – | – | – | – | – | – | – | – | – |
| 716370 (k[5mC]*kA*kG*dT*dG*d[5mC]*d[5mC]*dT*dG*d[5mC]*dA*dT*d[5mC]*kA*kG*kT; antisense) [compound 716370] | > 4 µM | 81 % UTC | 79 % UTC | 69 % UTC | 49 % UTC | – | – | – | – | – | – | – | – | – | – |
| 716503 (antisense kT*kT*kA*dT*dT*dA*dT*dG*dA*dG*dT*dG*dA*kT*k[5mC]*kA) [compound 716503] | – | – | – | – | – | 91 % UTC | 80 % UTC | 67 % UTC | 64 % UTC | > 4 µM | – | – | – | – | – |
| 716501 (antisense kG*k[5mC]*kA*d[5mC]*dT*dG*dA*dA*dA*dG*dT*dA*d[5mC]*kT*kT*kA) [compound 716501] | – | – | – | – | – | 91 % UTC | 69 % UTC | 66 % UTC | 55 % UTC | > 4 µM | – | – | – | – | – |
